Laboratory results: patent US20100221308A1, “ANTIMICROBIAL COMPOSITIONS AND USES THEREOF” (KANE BIOTECH INC., priority 2005, published 2010)
≈ marks a conversion by molar mass, not a printed value. Like-named read-outs stand apart in the source and are kept apart here.

Columns and labels:
biofilm embedded E. coli = experiment: In vitro microplate assay, growth of biofilm embedded bacteria (CFU); format: cell-based; details: FIG. 1: 50 μg/ml PS, 12.5 μg/ml CHX; 24 hours
Description: (§1) In vitro microplate assays were performed to determine the enhanced effects of protamine sulfate and chlorhexidine salt combination on the growth of biofilm embedded biofilm forming catheter-associated bacteria such as E. coli, Pseudomonas aeruginosa and Staphylococcus epidermidis. Overnight culture of each bacterial strain grown in Luria-Bertani (LB) or Tryptic Soy Broth (TSB) was used as inoculum. Bacteria were grown in Colony Forming Antigen (CFA) medium (for gram-negative) or in TSB (for gram-positive) on a 12-well microplate in the absence and presence of each test compound (PS or CHX) separately and together (PS+CHX) at 12.5, 25, or 50 μg/ml. The plate was incubated at 37° C. for 24 hours. Media containing planktonic cells in each well were removed gently and rinsed with sterile water. A known volume of water was added to each well and sonicated for 30 seconds. The transfer of contents of each well into a sterile tube and vortexing for a minute was followed by 10-fold serial dilution and plating on agar plates using a spreader. After incubating the plates at 37° C. for 24 hours, the colonies forming units (CFU) were counted.

[1] = system: biofilm embedded Pseudomonas aeruginosa; experiment: as above; format: cell-based; details: FIG. 2: 25 μg/ml PS, 25 μg/ml CHX; 24 hours
Description: as §1

[2] = system: biofilm embedded Staphylococcus epidermidis; experiment: as above; format: cell-based; details: FIG. 3: 12.5 μg/ml PS, 12.5 μg/ml CHX; 24 hours
Description: as §1, with “Bacteria were grown in Colony Forming Antigen (CFA) medium (for gram-negative) or in TSB (for gram-positive) on a 12-well microplate in the absence and presence of each test compound (PS or CHX) separately and together (PS+CHX) at 12.5, 25, or 50 μg/ml.” left out

E. coli = experiment: MIC, broth microdilution assay; format: cell-based; details: agent alone, 24 h
K. pneumoniae = experiment: MIC, broth microdilution assay; format: cell-based, Klebsiella pneumoniae; details: agent alone, 24 h
P. aeruginosa = experiment: MIC, broth microdilution assay; format: cell-based, Pseudomonas aeruginosa; details: agent alone, 24 h
S. aureus = experiment: MIC, broth microdilution assay; format: cell-based, Staphylococcus aureus; details: agent alone, 24 h
B. cereus = experiment: MIC, broth microdilution assay; format: cell-based, Bacillus cereus; details: agent alone, 24 h
S. thermophilus = experiment: MIC, broth microdilution assay; format: cell-based, Streptococcus thermophilus; details: agent alone, 24 h
L. monocytogens = experiment: MIC, broth microdilution assay; format: cell-based, Listeria monocytogenes; details: agent alone, 24 h
C. perfringens = experiment: microbe, parasite or virus in culture; format: cell-based, Clostridium perfringens; details: 24 h
A. naeslundii ATCC 12104 = experiment: MIC for oral bacteria, broth microdilution assay; format: cell-based; details: agent alone, 24 h
Description: (§2) The minimum inhibitory concentrations (MICs) of chlorhexidine (CHX) and protamine sulfate (PS) alone and CHX and PS combination for S. mutans, S. sobrinus and A. naeslundii were determined using a broth microdilution assay in 96-well microtiter plate as described previously (Amsterdam, D. 1996., In: V. Loman, Ed., “Antibiotics in laboratory medicine”, p. 52-111, Williams and Wilkins, Baltimore, Md.). S. mutans and S. sobrinus were grown overnight at 37° C. with 100 rpm shaking in THYE broth supplemented with 0.01% hog gastric mucin, and A. naeslundii was grown in TSB-YK broth, and diluted to approximately 10^5 CFU/ml. […] Plates were incubated at 37° C. for 24 h and were read at 600 nm using a microtiter plate reader (Labsystems, Multiskan Ascent, Helsinki, Finland).

S. mutans UA 159 = experiment: MIC for oral bacteria, broth microdilution assay; format: cell-based; details: agent alone, 24 h
Description: as §2

S. sobrinus HNG 909S = experiment: MIC for oral bacteria, broth microdilution assay; format: cell-based; details: agent alone, 24 h
Description: as §2

[H]/N=C(\N/C(=N/[H])NCCCCCCNC(=N)NC(=N)Nc1ccc(Cl)cc1)Nc1ccc(Cl)cc1 [CHX, chlorhexidine]
inhibition of growth of biofilm embedded organism (CFU), in words (biofilm embedded E. coli): more effective than protamine sulfate
inhibition of growth of biofilm embedded organism (CFU), in words [1]: more effective than protamine sulfate
inhibition of growth of biofilm embedded organism (CFU), in words [2]: more effective than protamine sulfate
MIC (E. coli; Escherichia coli, read-out: MIC): 0.39 µg/mL (≈ 0.772 µM)
MIC (K. pneumoniae; Klebsiella pneumoniae, read-out: MIC): 6.25 µg/mL (≈ 12.4 µM)
MIC (P. aeruginosa; Pseudomonas aeruginosa, read-out: MIC): 12.5 µg/mL (≈ 24.7 µM)
MIC (S. aureus; Staphylococcus aureus, read-out: MIC): 0.781 µg/mL (≈ 1.55 µM)
MIC (B. cereus; Bacillus cereus, read-out: MIC): 3.12 µg/mL (≈ 6.18 µM)
MIC (S. thermophilus; Streptococcus thermophilus, read-out: MIC): < 0.195 µg/mL
MIC (L. monocytogens; Listeria monocytogenes, read-out: MIC): 3.12 µg/mL (≈ 6.18 µM)
MIC (C. perfringens; Clostridium perfringens): 1.56 µg/mL (≈ 3.09 µM)
MIC (A. naeslundii ATCC 12104; Actinomyces naeslundii, ATCC12104, read-out: Minimum inhibitory concentration): 50 µg/mL
MIC (S. mutans UA 159; Streptococcus mutans, UA159, read-out: Minimum inhibitory concentration): 6.25 µg/mL
MIC (S. sobrinus HNG 909S; Streptococcus sobrinus, HNG909S, read-out: Minimum inhibitory concentration): 1.56 µg/mL

protamine sulfate [PS]
MIC (E. coli): >100 µg/mL
MIC (K. pneumoniae): >200 µg/mL
MIC (P. aeruginosa): 200 µg/mL
MIC (S. aureus): 200 µg/mL
MIC (B. cereus): >200 µg/mL
MIC (S. thermophilus): 200 µg/mL
MIC (L. monocytogens): 200 µg/mL
MIC (C. perfringens; agent alone): >200 µg/mL
Minimum inhibitory concentration (A. naeslundii ATCC 12104): >200 µg/mL
Minimum inhibitory concentration (S. mutans UA 159): >200 µg/mL
Minimum inhibitory concentration (S. sobrinus HNG 909S): >200 µg/mL
